Patent US20090197975A1, “COMPOSITIONS FORMULATED FOR SOLVENT-REGULATED DRUG RELEASE” (MIV Therapeutics Inc., priority 2005, published 2009)

Experiment: Paclitaxel composition droplets immersed in PBS for 72 hours (FIG. 3)
Assay type: physicochemical
Settings: 72 hours in PBS; DENA and DMSO present as solubilizing agents
Text: FIG. 3 is two photographs comparing three drug compositions formulated in accordance with the invention. Each composition comprises the drug paclitaxel formulated with different compositional ratios of solvents, namely a first solvent comprising a mixture of 70% DENA and 30% DMSO and a second solvent comprising 70% castor oil and 30% soybean oil. The left-hand composition comprises 70% of the first solvent and 30% of the second solvent; the middle composition comprises 60% of the first solvent and 40% of the second solvent; and the right-hand composition comprises 50% of the first solvent and 50% of the second solvent.
In the example of FIG. 3, the release profile of a composition 10 comprising the water-insoluble lipophilic drug paclitaxel was investigated. Paclitaxel is a well-known chemotherapy agent. FIG. 3 compares three drug compositions comprising paclitaxel formulated with different compositional ratios of first and second solvents 14, 18. The concentration of paclitaxel is maintained at 20 weight percent in first solvent 14. In this example, first solvent 14 comprises a mixture of 70% DENA and 30% DMSO and second solvent 18 comprises 70% castor oil and 30% soybean oil. […]

## CC(=O)O[C@H]1C(=O)[C@@]2(C)[C@H]([C@H](OC(=O)c3ccccc3)[C@]3(O)C[C@H](OC(=O)[C@H](O)[C@@H](NC(=O)c4ccccc4)c4ccccc4)C(C)=C1C3(C)C)[C@]1(OC(C)=O)CO[C@@H]1C[C@@H]2O [paclitaxel]
  paclitaxel precipitate visually detected in the PBS: No white precipitate
